These are literature values, as cited in patent US20170304358A1, “PRIMARY AND SECONDARY PREVENTION OF DEMENTIAS AND SUICIDE WITH TRACE DOSE LITHIUM” (priority 2014, published 2017).

The test system of series [1] is cognition in persons with MCI. As to conditions: micro-doses (<0.28 mg/d of lithium carbonate).
The conditions of series [2]: standard doses of lithium.

On to `O=C([O-])[O-].[Li+].[Li+]` [Lithium carbonate, lithium carbonate], for which the “benefit for cognition in MCI” value in series [1] is given as “some benefit for cognition”.

Turning to `[Li]` [lithium], in series [2], the adverse side effects result is listed as “renal toxicity”.
